Where two headings read alike, the source gives them in different places.
Tests used:
HIV-IIIb = test: Test A: Antiviral Assay in MT4 Cells; format: cell-based, HIV-1; settings: read-out: % inhibition at 0.2 μM (percent inhibition of virus-induced cell killing)
How it was run: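 Readout was CellTiter-Glo luminescence after 10 min room-temperature lysis, taken 5 days after plating at 37 °C. The 2000 MT-4 cells per well, mixed 1 h beforehand with HIV-IIIb (m.o.i. 0.003), went straight onto the diluted compound.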

[1] = Test B: Cytotoxicity Assay; format: cell-based; settings: human, uninfected MT-4 cells, CellTiter-Glo
Description: Test B: Cytotoxicity Assay Compound cytotoxicity and the corresponding CC50 values was determined using the same protocol as described in the antiviral assay (Test A) except that uninfected cells were used.

[2] = Human immunodeficiency virus 1, IIIB, MT4, 120 h
[3] = Human immunodeficiency virus 1, MT4, 120 h, 0.2 μM drug concentration, MT-4 cells infected with HIV-IIIb, 5 days, values normalized to 100%, average over time

SMILES: CCN1CCO[C@](C)(C#Cc2ccc(-c3ccc(Cl)c4c(NS(C)(=O)=O)nn(C)c34)c([C@H](Cc3cc(F)cc(F)c3)NC(=O)Cn3nc(C(F)F)c4c3C(F)(F)[C@@H]3C[C@H]43)n2)C1 [Compound 85, N—((S)-1-(3-(4-chloro-1-methyl-3-(methylsulfonamido)-1H-indazol-7-yl)-6-(((R)-4-ethyl-2-methylmorpholin-2-yl)ethynyl)pyridin-2-yl)-2-(3,5-difluorophenyl)ethyl)-2-((3bS,4aR)-3-(difluoromethyl)-5,5-difluoro-3b,4,4a,5-tetrahydro-1-cyclopropa[3,4]cyclopenta[1,2-c]pyrazol-1-yl)acetamide]
- inhibition at 0.2 µM (HIV-IIIb; [2]): 100%
- CC50 at 5 days [1]: 28.6 µM

SMILES: CC(=O)N1CCO[C@](C)(C#Cc2ccc(-c3ccc(Cl)c4c(NS(C)(=O)=O)nn(C)c34)c([C@H](Cc3cc(F)cc(F)c3)NC(=O)Cn3nc(C(F)F)c4c3C(F)(F)[C@@H]3C[C@H]43)n2)C1 [Compound 86, N—((S)-1-(6-(((R)-4-acetyl-2-methylmorpholin-2-yl)ethynyl)-3-(4-chloro-1-methyl-3-(methylsulfonamido)-1H-indazol-7-yl)pyridin-2-yl)-2-(3,5-difluorophenyl)ethyl)-2-((3bS,4aR)-3-(difluoromethyl)-5,5-difluoro-3b,4,4a,5-tetrahydro-1H-cyclopropa[3,4]cyclopenta[1,2-c]pyrazol-1-yl)acetamide]
- inhibition at 0.2 µM (HIV-IIIb; [2]): 93%
- CC50 at 5 days [1]: 21.4 µM

SMILES: CC(C)N1CCO[C@](C)(C#Cc2ccc(-c3ccc(Cl)c4c(NS(C)(=O)=O)nn(C)c34)c([C@H](Cc3cc(F)cc(F)c3)NC(=O)Cn3nc(C(F)F)c4c3C(F)(F)[C@@H]3C[C@H]43)n2)C1 [Compound 87, N—((S)-1-(3-(4-chloro-1-methyl-3-(methylsulfonamido)-1H-indazol-7-yl)-6-(((R)-4-isopropyl-2-methylmorpholin-2-yl)ethynyl)pyridin-2-yl)-2-(3,5-difluorophenyl)ethyl)-2-((3bS,4aR)-3-(difluoromethyl)-5,5-difluoro-3b,4,4a,5-tetrahydro-1H-cyclopropa[3,4]cyclopenta[1,2-c]pyrazol-1-yl)acetamide]
- inhibition at 0.2 µM (HIV-IIIb; [3]): 100%
- CC50 at 5 days [1]: 19.5 µM

SMILES: Cn1nc(NS(C)(=O)=O)c2c(Cl)ccc(-c3ccc(C#C[C@]4(C)CNCCO4)nc3[C@H](Cc3cc(F)cc(F)c3)NC(=O)Cn3nc(C#N)c4c3C(F)(F)[C@@H]3C[C@H]43)c21 [Compound 88L, N—((S)-1-(3-(4-chloro-1-methyl-3-(methylsulfonamido)-1H-indazol-7-yl)-6-(((R)-2-methylmorpholin-2-yl)ethynyl)pyridin-2-yl)-2-(3,5-difluorophenyl)ethyl)-2-((3bS,4aR)-3-cyano-5,5-difluoro-3b,4,4a,5-tetrahydro-1H-cyclopropa[3,4]cyclopenta[1,2-c]pyrazol-1-yl)acetamide]
- inhibition at 0.2 µM (HIV-IIIb; [3]): 97%
- CC50 at 5 days [1]: 5.79 µM

SMILES: Cc1nccn1C(C)(C)C#Cc1ccc(-c2ccc(Cl)c3c(NS(C)(=O)=O)nn(C)c23)c([C@H](Cc2cc(F)cc(F)c2)NC(=O)Cn2nc(C(F)F)c3c2C(F)(F)[C@@H]2C[C@H]32)n1 [Compound 89B]
- inhibition at 0.2 µM (HIV-IIIb; [3]): 87%
- CC50 at 5 days [1]: 8.31 µM

SMILES: Cc1nccn1C(C)(C)C#Cc1ccc(-c2ccc(Cl)c3c(NS(C)(=O)=O)nn(C)c23)c([C@H](Cc2cc(F)cc(F)c2)NC(=O)Cn2nc(C(F)(F)F)c3c2C(F)(F)[C@@H]2C[C@H]32)n1 [Compound 90, N—((S)-1-(3-(4-chloro-1-methyl-3-(methylsulfonamido)-1H-indazol-7-yl)-6-(3-methyl-3-(2-methyl-1H-imidazol-1-yl)but-1-yn-1-yl)pyridin-2-yl)-2-(3,5-difluorophenyl)ethyl)-2-((3bS,4aR)-5,5-difluoro-3-(trifluoromethyl)-3b,4,4a,5-tetrahydro-1H-cyclopropa[3,4]cyclopenta[1,2-c]pyrazol-1-yl)acetamide]
- inhibition at 0.2 µM (HIV-IIIb; [3]): 98%
- CC50 at 5 days [1]: 3.04 µM

SMILES: Cn1nc(NS(C)(=O)=O)c2c(Cl)ccc(-c3ccc(C#CC(C)(C)c4ncc[nH]4)nc3[C@H](Cc3cc(F)cc(F)c3)NC(=O)Cn3nc(C(F)F)c4c3C(F)(F)[C@@H]3C[C@H]43)c21 [Compound 91F, N—((S)-1-(6-(3-(1H-imidazol-2-yl)-3-methylbut-1-yn-1-yl)-3-(4-chloro-1-methyl-3-(methylsulfonamido)-1H-indazol-7-yl)pyridin-2-yl)-2-(3,5-difluorophenyl)ethyl)-2-((3bS,4aR)-3-(difluoromethyl)-5,5-difluoro-3b,4,4a,5-tetrahydro-1H-cyclopropa[3,4]cyclopenta[1,2-c]pyrazol-1-yl)acetamide]
- inhibition at 0.2 µM (HIV-IIIb; [3]): 98%
- CC50 at 5 days [1]: 14.6 µM

SMILES: Cn1ccnc1C(C)(C)C#Cc1ccc(-c2ccc(Cl)c3c(NS(C)(=O)=O)nn(C)c23)c([C@H](Cc2cc(F)cc(F)c2)NC(=O)Cn2nc(C(F)F)c3c2C(F)(F)[C@@H]2C[C@H]32)n1 [Compound 92B, N—((S)-1-(3-(4-chloro-1-methyl-3-(methylsulfonamido)-1H-indazol-7-yl)-6-(3-methyl-3-(1-methyl-1H-imidazol-2-yl)but-1-yn-1-yl)pyridin-2-yl)-2-(3,5-difluorophenyl)ethyl)-2-((3bS,4aR)-3-(difluoromethyl)-5,5-difluoro-3b,4,4a,5-tetrahydro-1H-cyclopropa[3,4]cyclopenta[1,2-c]pyrazol-1-yl)acetamide]
- inhibition at 0.2 µM (HIV-IIIb; [3]): 100%
- CC50 at 5 days [1]: 25.9 µM

SMILES: Cn1nc(NS(C)(=O)=O)c2c(Cl)ccc(-c3cc(-c4cnn(C5COC5)c4)cnc3[C@H](Cc3cc(F)cc(F)c3)NC(=O)Cn3nc(C(F)F)c4c3C(F)(F)[C@@H]3C[C@H]43)c21 [Compound 93D, N—((S)-1-(3-(4-chloro-1-methyl-3-(methylsulfonamido)-1H-indazol-7-yl)-5-(1-(oxetan-3-yl)-1H-pyrazol-4-yl)pyridin-2-yl)-2-(3,5-difluorophenyl)ethyl)-2-((3bS,4aR)-3-(difluoromethyl)-5,5-difluoro-3b,4,4a,5-tetrahydro-1H-cyclopropa[3,4]cyclopenta[1,2-c]pyrazol-1-yl)acetamide]
- inhibition at 0.2 µM (HIV-IIIb; [3]): 93%
- CC50 at 5 days [1]: 18.3 µM

SMILES: Cn1nc(NS(C)(=O)=O)c2c(Cl)ccc(-c3ccc(C#CC4(CO)CC4)nc3[C@H](Cc3cc(F)cc(F)c3)NC(=O)Cn3nc(C(F)F)c4c3C(F)(F)[C@@H]3C[C@H]43)c21 [Compound 94B, N—((S)-1-(3-(4-chloro-1-methyl-3-(methylsulfonamido)-1H-indazol-7-yl)-6-((1-(hydroxymethyl)cyclopropyl)ethynyl)pyridin-2-yl)-2-(3,5-difluorophenyl)ethyl)-2-((3bS,4aR)-3-(difluoromethyl)-5,5-difluoro-3b,4,4a,5-tetrahydro-1H-cyclopropa[3,4]cyclopenta[1,2-c]pyrazol-1-yl)acetamide]
- inhibition at 0.2 µM (HIV-IIIb; [3]): 91%
- CC50 at 5 days [1]: 12.4 µM

From patent US9873680B2 (Gilead Sciences, Inc., priority 2014, dated 2018)
